Laboratory results published in US8088734B2, “Oral delivery of peptides” (Unigene Laboratories Inc., priority 2003, dated 2012).

Legend:
[1] = in vivo; details: rat; for AUC / Cmax / level at 0.25 h / level at 0.5 h / level at 1 h / level at 2 h: female; for level at 0.25 h / level at 0.5 h / level at 1 h / level at 2 h: 2.5 mg
From the text: The effect of C-terminal amidation on the absorption of luteinizing hormone-releasing hormone (LHRH-NH2) from the duodenum of anesthetized rats was examined. In this study the absorption characteristics of LHRH-NH2, a naturally occurring C-terminal amidated decapeptide were compared with that of LHRH-COOH, a decapeptide with the same amino acid sequence as that of LHRH-NH2 except that the C-terminal amino acid of LHRH-COOH is gly-COOH instead of gly-NH2. Twelve female rats were anesthetized and implanted with a cannula in the carotid artery for taking blood samples at various times. Six rats were injected in the duodenum through a 27 gauge needle with 0.5 mL of LHRH-NH2 (5 mg/mL) in 0.5M citric acid and lauroylcarnitine (10 mg/mL) and six rats with injected in the duodenum with 0.5 mL LHRH-COOH) (5 mg/mL) in the same formulation. Samples of blood were taken prior to the administration of formulated LHRH-NH2 or LHRH-COOH and at 5, 15, 30, 60, and 120 minutes after peptide administration. The resulting plasma samples were analyzed for LHRH-NH2 or LHRH-COOH by high performance liquid chromatography equipped with a fluorescence detector to measure the concentration of peptide in plasma.

[2] = Oral bioavailability of sCTgly vs sCT-NH2, enteric coated capsules, dog model; format: in vivo, Beagle dogs; details: for Cmax: male, Beagle, read-out: Mean Cmax ± SEM; for Cmax / Mean AUC ± SERM: oral enteric coated capsule, dog plasma, adjusted to a 1 mg dose
Protocol: A study was carried out in a dog model to compare the pharmacokinetic parameters of orally delivered glycine-extended sCT (sCTgly) with those of amidated sCT (sCT-NH2).
Eight adult male Beagle dogs, weighing between 12 and 16 kg, were used in this study. Dogs were fasted overnight prior to administration of the test peptide, but were allowed free access to water. A wash-out period of at least 1 week occurred between experiments for each dog. Each dog received an orally administered, enteric coated gelatin capsule that contained 1.11 mg of sCTgly in week 1 and 1.11 mg of sCT-NH2 in week 2. Prior to capsule administration, a 20-gauge intravenous (IV) catheter was inserted into a brachial vein for the collection of blood samples. Two pre-dose samples of 3 ml each were collected from the brachial vein.
After administration of the capsule, 3 ml blood samples were collected from the brachial vein at 15 minute intervals up to 240 minutes post-administration. Blood samples were collected into new heparinized Monovette sampling syringes. Samples were placed on ice before being centrifuged for 10 minutes at approximately 2750 rpm at 2-8° C. The plasma supernatant was transferred to color-coded microcentrifuge tubes labeled with the time point and stored frozen at −20° C. prior to analysis to determine the concentration of sCTgly or sCT-NH2.
The concentration of sCTgly in plasma was determined by radioimmunoassay with an RIA kit from Peninsula Laboratories. sCT-NH2 concentration in plasma was determined by a sandwich ELISA immunoassay using a kit from Diagnostic Systems Laboratories Inc. From the pharmacokinetic profile of sCTgly or sCT-NH2 in plasma, the parameters of Cmax (peak of plasma concentration in pg/ml) and AUC (Area under the Curve) were determined. All measured values were normalized for a 1 mg peptide dose for either of the two peptides.

[3] = Blood levels of salmon calcitonin after direct injection into duodenum, ileum or colon of rats; format: in vivo; details: active components injected directly into duodenum
From the text: The acid is believed to lower the local intestinal pH (where the active agent has been released) to levels below the optimal range for many intestinal proteases and other intestinal enzymes. This decrease in pH reduces the proteolytic activity of the intestinal proteases, thus affording protection to the peptide and the membrane translocator from potential degradation. The activity of these proteases is diminished by the temporarily acidic environment provided by the invention. It is preferred that sufficient acid be provided that local intestinal pH is lowered temporarily to 5.5 or below, preferably 4.7 or below and more preferably 3.5 or below. The sodium bicarbonate test described below (in the section captioned “the pH-Lowering Agent”) is indicative of the required acid amount.

[4] = cited from earlier work

AUC [1] [ng·h/mL] | Cmax [1] [ng/mL] | level at 0.25 h [1] [ng/mL] | level at 0.5 h [1] [ng/mL] | level at 1 h [1] [ng/mL] | level at 2 h [1] [ng/mL] | time at which maximum concentration (Cmax) was detected in plasma [1] | AUC relative to free acid form of LHRH [1] [times] | amount detected in plasma relative to LHRH-COOH [1] [times] | Cmax [2] [ng/mL] | Mean AUC ± SERM [2] | mean AUC relative to sCTgly ([2]; oral, dog) [times] | mean Cmax relative to sCTgly ([2]; oral, dog) [times] | Tmax for blood levels [3] [min] | SMILES | blood levels after injection at conventional dosages ([4]; man) | duration of beneficial effect on osteoclasts ([4]; man) | peak levels at which proven effective against osteoporosis ([4]; nasally administered, 200 International units) [picograms per milliliter] | peak levels at which some patients report gastrointestinal distress ([4]; patients) [picograms per milliliter] | half-life ([4]; subcutaneous administration in man) [min] | peak serum concentration ([4]; subcutaneous administration, 100 International units)
296 | 654 ± 103 | 654 ± 103 | 391 ± 81 | 163 ± 68 | 56 ± 19 | five | – | – | – | – | – | – | – | CC(C)C[C@H](NC(=O)CNC(=O)[C@H](Cc1ccc(O)cc1)NC(=O)[C@H](CO)NC(=O)[C@H](Cc1c[nH]c2ccccc12)NC(=O)[C@H](Cc1cnc[nH]1)NC(=O)[C@@H]1CCC(=O)N1)C(=O)N[C@@H](CCCN=C(N)N)C(=O)N1CCC[C@H]1C(=O)NCC(=O)O [LHRH-COOH] | – | – | – | – | – | –
1820 | 3280 ± 893 | 3280 ± 893 | 2900 ± 612 | 1280 ± 282 | 382 ± 103 | five | 6 | 5 | – | – | – | – | – | CC(C)C[C@H](NC(=O)CNC(=O)[C@H](Cc1ccc(O)cc1)NC(=O)[C@H](CO)NC(=O)[C@H](Cc1c[nH]c2ccccc12)NC(=O)[C@H](Cc1cnc[nH]1)NC(=O)[C@@H]1CCC(=O)N1)C(=O)N[C@@H](CCCNC(=N)N)C(=O)N1CCC[C@H]1C(=O)NCC(N)=O [LHRH-NH2] | – | – | – | – | – | –
– | – | – | – | – | – | – | – | – | 3.2 | 148,000 ± 18,200 pg · min/ml | 5.9 | 6.6 | 5 to 15 | CC(C)C[C@H](NC(=O)[C@H](CCCCN)NC(=O)CNC(=O)[C@H](CC(C)C)NC(=O)[C@@H](NC(=O)[C@@H]1CSSC[C@H](N)C(=O)N[C@@H](CO)C(=O)N[C@@H](CC(N)=O)C(=O)N[C@@H](CC(C)C)C(=O)N[C@@H](CO)C(=O)N[C@@H]([C@@H](C)O)C(=O)N1)C(C)C)C(=O)N[C@@H](CO)C(=O)N[C@@H](CCC(N)=O)C(=O)N[C@@H](CCC(=O)O)C(=O)N[C@@H](CC(C)C)C(=O)N[C@@H](Cc1c[nH]cn1)C(=O)N[C@@H](CCCCN)C(=O)N[C@@H](CC(C)C)C(=O)N[C@@H](CCC(N)=O)C(=O)N[C@H](C(=O)N[C@@H](Cc1ccc(O)cc1)C(=O)N1CCC[C@H]1C(=O)N[C@@H](CCCNC(=N)N)C(=O)N[C@H](C(=O)N[C@@H](CC(N)=O)C(=O)N[C@H](C(=O)NCC(=O)N[C@@H](CO)C(=O)NCC(=O)N[C@H](C(=O)N1CCC[C@H]1C(N)=O)[C@@H](C)O)[C@@H](C)O)[C@@H](C)O)[C@@H](C)O [sCT-NH2] | no detectable blood levels more than two hours after injection | more than 24 hours | ≥ 10 | ≥ 200 | 20 to 40 | about 250 picograms per milliliter
– | – | – | – | – | – | – | – | – | 0.485 ± 0.106 | 25,125 ± 5,525 pg · min/ml | – | – | – | CC(C)C[C@H](NC(=O)[C@H](CCCCN)NC(=O)CNC(=O)[C@H](CC(C)C)NC(=O)[C@@H](NC(=O)[C@@H]1CSSC[C@H](N)C(=O)N[C@@H](CO)C(=O)N[C@@H](CC(N)=O)C(=O)N[C@@H](CC(C)C)C(=O)N[C@@H](CO)C(=O)N[C@@H]([C@@H](C)O)C(=O)N1)C(C)C)C(=O)N[C@@H](CO)C(=O)N[C@@H](CCC(N)=O)C(=O)N[C@@H](CCC(=O)O)C(=O)N[C@@H](CC(C)C)C(=O)N[C@@H](Cc1c[nH]cn1)C(=O)N[C@@H](CCCCN)C(=O)N[C@@H](CC(C)C)C(=O)N[C@@H](CCC(N)=O)C(=O)N[C@H](C(=O)N[C@@H](Cc1ccc(O)cc1)C(=O)N1CCC[C@H]1C(=O)N[C@@H](CCCNC(=N)N)C(=O)N[C@H](C(=O)N[C@@H](CC(N)=O)C(=O)N[C@H](C(=O)NCC(=O)N[C@@H](CO)C(=O)NCC(=O)N[C@H](C(=O)N1CCC[C@H]1C(=O)NCC(=O)O)[C@@H](C)O)[C@@H](C)O)[C@@H](C)O)[C@@H](C)O [sCTgly] | – | – | – | – | – | –
